Data from patent US20060057669A1, “Inactive transcription factor tif-ia and uses thereof” (priority 2002, published 2006).

How the values were obtained:
TIF-IA [1] = assay: Western blot of TIF-IA and Pol I in stimulated NIH3T3 cells; type: cell-based; conditions: 40 μM PD98059, 30 min
Procedure: Serum-starved NIH3T3 cells were stimulated for 30 min by 10% serum, 10 ng bFGF, 50 ng/ml EGF or 0.1 μM TPA in the absence or presence of 40 μM PD98059. A Western blot is shown with 50 μg lysate proteins and antibodies against unphosphorylated and phosphorylated ERK1/2 as well as Pol I (RPA116) and TIF-IA.
Similarly, the amount of both Pol I and TIF-IA remained the same in quiescent and serum-stimulated cells. On Western blots, TIF-IA from growing and quiescent cells appears as a closely spaced double-band (indicated by a dot and asterisk in FIG. 1B) that corresponds to differently phosphorylated forms of TIF-IA. After mitogenic stimulation, the faster migrating form was converted into the more slowly migrating TIF-IA moiety. The shift in electrophoretic mobility correlated with cellular pre-rRNA synthetic activity, i.e., was predominant 20-30 min after mitogenic stimulation and returned to normal levels after 2 hr. Activation of pre-rRNA synthesis and decrease in the electrophoretic mobility of TIF-IA was also observed after stimulation of quiescent cells with growth factors, e.g. bFGF, or EGF, or with the phorbol ester TPA (FIGS. 1C and D), a potent stimulus of the Ras-ERK pathway, through activation of protein kinase C.

TIF-IA [2] = assay: In vitro transcription assay of TIF-IA purified from treated cells, in nuclear extract from density-arrested FM3A cells; type: biochemical
Procedure: (A) TIF-IA activity in starved and serum-stimulated cells. The indicated amounts of TIF-IA purified from starved NIH3T3 cells (lanes 2-4) or cells that were stimulated by serum in the absence (lanes 5-7) or presence of PD98059 (lanes 8-10) were assayed for their capability to restore transcription of a nuclear extract from density-arrested FM3A cells (lane 1). The amount and purity of TIF-IA were estimated on silver-stained SDS-polyacrylamide gels (data not shown).
FLAG-tagged TIF-IA was purified from untreated (lanes 2-3) or PD98059-treated HEK293T cells (lanes 4-5). The indicated amounts of TIF-IA were assayed for their capability to restore transcription of a nuclear extract from density-arrested FM3A cells (lane 1). The amount of TIF-IA was estimated on silver-stained SDS-polyacrylamide gels (data not shown).
20 and 40 ng of TIF-IA that was immunopurified from untreated (lanes 2, 3) and rapamycin-treated cells (lanes 4, 5) were added to transcription reactions containing nuclear extracts (30 μg) from density-arrested cells.
Nuclear extracts were prepared from exponentially growing (8×10^5 cells/ml), density-arrested or PD98059-treated (CN Bioscience, Bad Soden, Germany) 40 μM, 0.5 hr) or rapamycin-treated FM3A cells (ATCC, Manassas, USA). […] After incubation for 60 min at 30° C., RNA was extracted and analyzed on non-denaturing 5% polyacrylamide gels […]

SMILES: COc1cccc(-c2cc(=O)c3ccccc3o2)c1N [PD98059]
- effect on electrophoretic mobility shift of TIF-IA after stimulation (TIF-IA [1]): prevented the electrophoretic mobility shift of TIF-IA
- effect on the amount of Pol I and TIF-IA (TIF-IA [1]): does not affect the amount of Pol I and TIF-IA
- transcriptional activity of TIF-IA from treated cells (TIF-IA [2]; NIH3T3 cells stimulated with serum in the presence of PD98059): TIF-IA remained inactive
- transcriptional activity of TIF-IA from treated cells (TIF-IA [2]; unsynchronized cells treated for 30 min with PD98059): transcriptionally inactive
